# Data as given in patent US9073864B2, “Aromatic ring compound” (TAKEDA PHARMACEUTICAL COMPANY LIMITED, priority 2012, dated 2015).
# Target: T1, human type glucagon receptor (Homo sapiens, UniProt P47871)
# T1 construct: an about 1.4 kb DNA fragment containing glucagon receptor gene was recovered from the gel; expressed in transfected cells; host or cells: FreeStyle CHO cells (transient expression); membrane fraction prepared by homogenisation and ultracentrifugation
# Test: Measurement of glucagon binding inhibitory activity ([125I]-glucagon, receptor membrane protein)
# Details: test compound 10 μM; 0.4% DMSO alone = 0%, unlabeled glucagon 1 μM = 100%; read-out: inhibitory rate (%) at 10 μM
# Description: The glucagon binding inhibitory action of the compound of the present invention was evaluated by the following method.
# (1) Cloning of Human Glucagon Receptor Gene
# Human glucagon receptor gene was cloned by PCR reaction using human pancreas Marathon-ready cDNA (Clontech Laboratories, Inc.) as a template and the following primer set.
# The PCR reaction was performed using Advantage 2 polymerase (Clontech Laboratories, Inc.) and according to the attached protocol. The obtained PCR product was subjected to agarose gel (1%) electrophoresis, an about 1.4 kb DNA fragment containing glucagon receptor gene was recovered from the gel, and digested with restriction enzymes EcoRI and NotI. The restriction enzyme-treated DNA was subjected to agarose gel (1%) electrophoresis, an about 1.4 kb DNA fragment was recovered and ligated with plasmid pMSRaneo digested with restriction enzymes EcoRI and NotI to give human type glucagon receptor expression plasmid DNA “pMSRaneo/hGCGR”. The base sequence of the inserted fragment was confirmed to be identical with the object sequence.
# (2) Preparation of Glucagon Receptor Membrane Protein
# Human type glucagon receptor was expressed using FreeStyle CHO Expression System (Invitrogen™). According to the manual attached to the FreeStyle CHO Expression System, and using the human type glucagon receptor expression plasmid DNA “pMSRaneo/hGCGR” produced in the above-mentioned (1), transient expression was performed by FreeStyle CHO cells. The above-mentioned DNA was transfected, and shaking culture was performed at 37° C., 8% CO2, 125 rpm for 2 days. The culture medium was centrifuged at 2,000 rpm for 10 min and the cells were recovered. The recovered cells were washed with PBS, suspended in homogenate buffer [10 mM NaHCO3 (pH 7.4), 1 mM EDTA, complete EDTA-free (Roche, Ltd., 1 tablet/50 ml)], and the cells were disrupted by a Polytron cell disruption apparatus (Kinematica AG). The disruption solution was centrifuged at 2,000 rpm for 10 min, and the supernatant was recovered. The supernatant was centrifuged at 35,000 rpm for 60 min, and the precipitate was suspended in a buffer [20 mM Tris-HCl (pH 7.4), 5 mM EDTA, complete EDTA-free (Roche, Ltd., 1 tablet/50 ml)] to give a glucagon receptor membrane protein.
# (3) Measurement of Glucagon Binding Inhibitory Activity
# The reaction was started by adding 50 μl of a glucagon receptor membrane protein solution diluted with a reaction buffer [50 mM HEPES (pH 7.4), 5 mM EGTA, 5 mM magnesium chloride, 0.1% BSA, 0.005% Tween20] to 100 μg/ml, 25 μl of a test compound solution containing 0.4% DMSO, which solution was prepared with the reaction buffer to a compound concentration of 40 μM, and 25 μl of radiolabeled glucagon ([^125I]-Receptor Grade Glucagon; Perkin Elmer Inc.) diluted with the reaction buffer to 200 pM to each well of a 96 well plate (Corning Incorporated). The plate was stood at room temperature for 90 min, then the reaction solution was transferred from the reaction plate onto a 96 well unifilter GF/C plate (Perkin Elmer Inc.) by a cell harvester (Perkin Elmer Inc.), and suctioned to collect a membrane fraction on the filter. The filter was immersed in a 0.3% polyethyleneimine solution in advance to prevent non-specific adsorption of the labeled ligand. The filter was washed 4 times with the reaction buffer, and dried at 42° C. for 2 hr. To each well was added 25 μl of scintillator (MicroScint0; Perkin Elmer Inc.), and the amount of fluorescence was measured by a microplate scintillation counter (TopCount NXT™; Perkin Elmer Inc.).
# The inhibitory rate (%) of the well added with the test compound (10 μM; containing 0.4% DMSO solution) was calculated wherein the reaction rate of the well added with 0.4% DMSO alone was 0% inhibitory rate and that of the well added with unlabeled glucagon (final concentration 1 μM) was 100% inhibitory rate.
# T1 sequence (P47871 26-477): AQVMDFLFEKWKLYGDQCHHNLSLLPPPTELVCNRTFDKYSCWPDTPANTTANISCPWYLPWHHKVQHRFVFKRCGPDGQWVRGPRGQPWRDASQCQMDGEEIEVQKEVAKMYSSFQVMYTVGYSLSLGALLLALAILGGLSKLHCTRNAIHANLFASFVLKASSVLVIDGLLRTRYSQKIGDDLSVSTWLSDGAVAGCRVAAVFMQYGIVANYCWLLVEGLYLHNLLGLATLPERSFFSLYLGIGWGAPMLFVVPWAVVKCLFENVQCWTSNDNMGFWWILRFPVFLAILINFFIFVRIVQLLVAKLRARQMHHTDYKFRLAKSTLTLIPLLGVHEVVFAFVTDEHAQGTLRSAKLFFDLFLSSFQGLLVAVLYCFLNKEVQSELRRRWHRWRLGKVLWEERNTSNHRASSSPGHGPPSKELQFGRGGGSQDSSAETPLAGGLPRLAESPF
row,inhibition at 10 µM,SMILES
1,90%,"Cc1cc(-c2ccc(C(F)(F)F)nc2)ccc1C(CCC(F)(F)F)Nc1ccc(C(=O)N2CCC[C@@H](C(=O)O)C2)cc1 (mixture of isomers) [Example 9, (3R)-1-(4-((4,4,4-trifluoro-1-(2-methyl-4-(6-(trifluoromethyl)pyridin-3-yl)phenyl)butyl)amino)benzoyl)piperidine-3-carboxylic acid]"
2,88%,"Cc1cc(-c2ccc(C(F)(F)F)cn2)ccc1C(CCC(F)(F)F)Nc1ccc(C(=O)N2CCC[C@@H](C(=O)O)C2)cc1 (mixture of isomers) [Example 10, (3R)-1-(4-((4,4,4-trifluoro-1-(2-methyl-4-(5-(trifluoromethyl)pyridin-2-yl)phenyl)butyl)amino)benzoyl)piperidine-3-carboxylic acid]"
3,93%,"Cc1cc(-c2ncc(C(F)(F)F)cn2)ccc1C(CCC(F)(F)F)Nc1ccc(C(=O)N2CCC[C@@H](C(=O)O)C2)cc1 (mixture of isomers) [Example 11, (3R)-1-(4-((4,4,4-trifluoro-1-(2-methyl-4-(5-(trifluoromethyl)pyrimidin-2-yl)phenyl)butyl)amino)benzoyl)piperidine-3-carboxylic acid]"
4,96%,"Cc1cc(-c2ncc(Cl)cn2)ccc1C(CCC(F)(F)F)Nc1ccc(C(=O)N2CCC[C@@H](C(=O)O)C2)cc1 (mixture of isomers) [Example 12, (3R)-1-(4-((1-(4-(5-chloropyrimidin-2-yl)-2-methylphenyl)-4,4,4-trifluorobutyl)amino)benzoyl)piperidine-3-carboxylic acid]"
5,84%,"CCc1cnc(-c2ccc(C(CCC(F)(F)F)Nc3ccc(C(=O)N4CCC[C@@H](C(=O)O)C4)cc3)c(C)c2)nc1 (mixture of isomers) [Example 13, (3R)-1-(4-((1-(4-(5-ethylpyrimidin-2-yl)-2-methylphenyl)-4,4,4-trifluorobutyl)amino)benzoyl)piperidine-3-carboxylic acid]"
6,87%,"Cc1cc(-n2ccc(C(C)C)n2)ccc1C(CCC(F)(F)F)Nc1ccc(C(=O)N2CCC[C@@H](C(=O)O)C2)cc1 (mixture of isomers) [Example 19, (3R)-1-(4-((4,4,4-trifluoro-1-(4-(3-isopropyl-1H-pyrazol-1-yl)-2-methylphenyl)butyl)amino)benzoyl)piperidine-3-carboxylic acid]"
7,93%,"Cc1cc(-n2cc3c(n2)CCCC3)ccc1C(CCC(F)(F)F)Nc1ccc(C(=O)N2CCC[C@@H](C(=O)O)C2)cc1 (mixture of isomers) [Example 20, (3R)-1-(4-((4,4,4-trifluoro-1-(2-methyl-4-(4,5,6,7-tetrahydro-2H-indazol-2-yl)phenyl)butyl)amino)benzoyl)piperidine-3-carboxylic acid]"
8,90%,"Cc1cc(-n2cc3c(n2)CCCC3)ccc1C(Nc1ccc(C(=O)N2CCC[C@@H](C(=O)O)C2)cc1)C(C)C (mixture of isomers) [Example 116, (3R)-1-(4-((2-methyl-1-(2-methyl-4-(4,5,6,7-tetrahydro-2H-indazol-2-yl)phenyl)propyl)amino)benzoyl)piperidine-3-carboxylic acid]"
9,86%,"Cc1cc(-c2ccc(F)cc2)ccc1C(CCC(F)(F)F)Nc1ccc(C(=O)N2CCC[C@@H](C(=O)O)C2)cc1 (stereo partly drawn) [Example 5, (3R)-1-(4-((4,4,4-trifluoro-1-(4′-fluoro-3-methylbiphenyl-4-yl)butyl)amino)benzoyl)piperidine-3-carboxylic acid]"
10,85%,"Cc1cc(-c2ccc(F)cc2)ccc1C(CCC(F)(F)F)Nc1ccc(C(=O)N2CCC[C@@H](C(=O)O)C2)cn1 (stereo partly drawn) [Example 6, (3R)-1-((6-((4,4,4-trifluoro-1-(4′-fluoro-3-methylbiphenyl-4-yl)butyl)amino)pyridin-3-yl)carbonyl)piperidine-3-carboxylic acid]"
11,91%,"COc1ccc(-c2ccc(C(CCC(F)(F)F)Nc3ccc(C(=O)N4CCC[C@@H](C(=O)O)C4)cc3)c(C)c2)cc1 (stereo partly drawn) [Example 7, (3R)-1-(4-((4,4,4-trifluoro-1-(4′-methoxy-3-methylbiphenyl-4-yl)butyl)amino)benzoyl)piperidine-3-carboxylic acid]"
12,91%,"Cc1cc(-c2ccc(C#N)cc2)ccc1C(CCC(F)(F)F)Nc1ccc(C(=O)N2CCC[C@@H](C(=O)O)C2)cc1 (stereo partly drawn) [Example 8, (3R)-1-(4-((1-(4′-cyano-3-methylbiphenyl-4-yl)-4,4,4-trifluorobutyl)amino)benzoyl)piperidine-3-carboxylic acid]"
13,88%,"Cc1cc(-c2ccc(C(F)(F)F)nc2)ccc1C(CCC(F)(F)F)Nc1ccc(C(=O)N2CCC[C@@H](C(=O)O)C2)cc1 (stereo partly drawn) [Example 14, (3R)-1-(4-((4,4,4-trifluoro-1-(2-methyl-4-(6-(trifluoromethyl)pyridin-3-yl)phenyl)butyl)amino)benzoyl)piperidine-3-carboxylic acid]"
14,92%,"Cc1cc(-c2ccc(Cl)cc2)ccc1C(CCC(F)(F)F)Nc1ccc(C(=O)N2CCC[C@@H](C(=O)O)C2)cn1 (stereo partly drawn) [Example 15, (3R)-1-((6-((1-(4′-chloro-3-methylbiphenyl-4-yl)-4,4,4-trifluorobutyl)amino)pyridin-3-yl)carbonyl)piperidine-3-carboxylic acid]"
15,93%,"Cc1cc(-c2ccc(Cl)cc2)ccc1C(Nc1ccc(C(=O)N2CCC[C@@H](C(=O)O)C2)cc1)C1CCCCC1 (stereo partly drawn) [Example 16, (3R)-1-(4-(((4′-chloro-3-methylbiphenyl-4-yl)(cyclohexyl)methyl)amino)benzoyl)piperidine-3-carboxylic acid]"
16,92%,"Cc1cc(-c2ccc(Cl)cc2)ccc1C(Nc1ccc(C(=O)N2CCC[C@@H](C(=O)O)C2)cn1)C1CCCCC1 (stereo partly drawn) [Example 17, (3R)-1-((6-(((4′-chloro-3-methylbiphenyl-4-yl)(cyclohexyl)methyl)amino)pyridin-3-yl)carbonyl)piperidine-3-carboxylic acid]"
17,86%,"Cc1cc(C(CCC(F)(F)F)Nc2ccc(C(=O)N3CCC[C@@H](C(=O)O)C3)cc2)cc(C)c1-c1ccc(Cl)cc1 (stereo partly drawn) [Example 18, (3R)-1-(4-((1-(4′-chloro-2,6-dimethylbiphenyl-4-yl)-4,4,4-trifluorobutyl)amino)benzoyl)piperidine-3-carboxylic acid]"
18,89%,"Cc1cc(-n2ccc(C(C)C)n2)ccc1C(CCC(F)(F)F)Nc1ccc(C(=O)N2CCC[C@@H](C(=O)O)C2)cc1 (stereo partly drawn) [Example 22, (3R)-1-(4-((4,4,4-trifluoro-1-(4-(3-isopropyl-1H-pyrazol-1-yl)-2-methylphenyl)butyl)amino)benzoyl)piperidine-3-carboxylic acid]"
19,90%,"Cc1cc(-c2ncc(C(C)(C)C)o2)ccc1C(CCC(F)(F)F)Nc1ccc(C(=O)N2CCC[C@@H](C(=O)O)C2)cc1 (stereo partly drawn) [Example 23, (3R)-1-(4-((1-(4-(5-tert-butyl-1,3-oxazol-2-yl)-2-methylphenyl)-4,4,4-trifluorobutyl)amino)benzoyl)piperidine-3-carboxylic acid]"
20,84%,"O=C(O)[C@@H]1CCCN(C(=O)c2ccc(NC(c3ccc(-c4ccc(Cl)cc4)cc3)C3CCCCC3)cc2)C1 (stereo partly drawn) [Example 24, (3R)-1-(4-(((4′-chlorobiphenyl-4-yl)(cyclohexyl)methyl)amino)benzoyl)piperidine-3-carboxylic acid]"
21,71%,"O=C(O)[C@@H]1CCCN(C(=O)c2ccc(NC(CCC(F)(F)F)c3ccc(-c4ccccc4)cn3)cc2)C1 (stereo partly drawn) [Example 25, (3R)-1-(4-((4,4,4-trifluoro-1-(5-phenylpyridin-2-yl)butyl)amino)benzoyl)piperidine-3-carboxylic acid]"
